Results published in patent US11072627B2, “Uridine diphosphate derivatives, compositions and methods for treating neurodegenerative disorders” (Tufts University, priority 2011, dated 2021).
“Also recorded” adds a separate entry of the source. Like-named read-outs stand apart in the source and are kept apart here.

Tests used:
[1] = molecular target: T1, P2Y6 receptor (Homo sapiens, UniProt Q15077); assay: Activation of P2Y6 receptor, receptor induced Ca2+ changes with fluo-4; format: cell-based; parameters: expressed in transfected cells; host or cells: 1321N1 human astrocytoma cells
T1 sequence (Q15077 whole entry): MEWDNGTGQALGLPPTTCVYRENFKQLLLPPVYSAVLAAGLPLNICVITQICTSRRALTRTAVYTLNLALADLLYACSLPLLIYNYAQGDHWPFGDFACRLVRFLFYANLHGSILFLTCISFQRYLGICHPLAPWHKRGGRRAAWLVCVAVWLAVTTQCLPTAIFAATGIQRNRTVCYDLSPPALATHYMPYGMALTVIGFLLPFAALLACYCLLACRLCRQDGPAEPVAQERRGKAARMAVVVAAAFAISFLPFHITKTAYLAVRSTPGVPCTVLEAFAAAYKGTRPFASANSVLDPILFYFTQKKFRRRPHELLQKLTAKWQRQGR
Procedure: (§1) Synthetic ligands were tested for activation of P2Y6 receptor by measuring receptor induced Ca^2+ changes with the fluorescent Ca^2+ indicator fluo-4. 1321N1 human astrocytoma cell lines either expressing P2Y2, P2Y4 or P2Y6 receptors were plated into 24-well plates. Two days after plating, fluorometric measurements were made and responses of cells to a serial dilution of ligands were determined. P2Y6 mediated Ca^2+ fluorescent change was determined by normalized accumulation of fluorescent change of 3 timepoints after ligand administration subtracted by value from ACSF control. Changes in fluorescent intensity were plotted corresponding to ligand concention in GraphPad. Dose-response curve and EC50 for each ligand was estimated using nonlinear curve fit and Sigmoidal dose-response analysis. […] The ability of the sodium salt of compound 5 to elevate Ca^2+ signals in P2Y6 expressing cells was attenuated by addition of the P2Y6 antagonist MRS2578.
as §1, with “fluo-4, and results are shown in FIG. 10(A)-(K).” for “fluo-4.”

[2] = tested on: PSAPP mice; assay: Postmortem immunohistochemistry of plaque load in cortex and hippocampus; format: in vivo, mouse; conditions: for immunoreactivity of β1-40 (plaque load): i.p. for 4 and 6 consecutive days
Description: (§2) Heterozygous mutant (K670N/M671L) APP (50% C57B6, 50% SJL) transgenic mice were crossed with heterozygous mutant (A246E) PS-1 (50% C57B6, 50% SJL) transgenic mice to generate heterozygous PSAPP transgenic mice (also referred to as PS-1/APP or PSAPP+/+ mice), which refers to animals heterozygous for the PS-1 A246E transgene and the APP K670N/M671L transgene. Non-transgenic control animals were littermates (also referred to as PSAPP_−/− mice) generated in the breeding for PSAPP transgenic animals. Mouse genotype was determined by Polymerase Chain Reaction (PCR). Both male and female mice of 6-7 months old were used for the experiments below. All animal experiments were performed in accordance with the Tufts Animal Care and Use Committee and with national regulations and policies.
Mice were perfused transcardially with 4% paraformaldehyde and 40 μm Coronal sections were collected. Sections were sequentially incubated in 0.3% H2O2 for 10 minutes, blocking solution for 2 hrs, blocking solution containing the primary antibody (rabbit anti-beta1-42; rabbit anti-beta1-40, from Chemicon International and rat anti-CD45) for 48 hours at 4° C., and blocking solution containing biotinylated antibody or fluorescently-labeled antibody for 2 hours at room temperature. Sections were visualized in a bright field microscope or a confocal microscope, and the optical density was obtained using MetaMorph software.
After repeated imaging, brains were fixed and subjected to postmortem immunohistochemistry with amyloid beta specific antibodies β1-40 and β1-42 to evaluate the plaque load (area occupied by immunostaining of plaque) in cortex and hippocampus.
PSB0474 was systemically administered to PSAPP mice via intraperitoneal injection for 2, 4 and 6 consecutive days. In one group, prior to evaluation and following to administration for 6 consecutive days, treatment was suspended for two weeks (6+2 weeks group). Brains were then fixed and plaque load was evaluated by immunostaining with the amyloid beta specific antibodies: β1-40 and β1-42. Representative images of plaque load in cortex and hippocampus from animals that received injections of PSB0474 according to the foregoing injection schedules are shown in FIG. 5(A)-(D). […] Whereas, when administration of PSB0474 was stopped for 2 weeks following six consecutive days of treatment (denoted as the 6+2 weeks group), β1-40 staining rebounded; although to a level lower than observed in mice treated with saline as a vehicle control. […]
To generate these graphs showing plaque load, mice were euthanized, brain sections cut and antibodies directed against Aβ 42 were used to disclose Aβ plaques. […] The algorithm then calculated the percent area of the field of view occupied by the plaques.

[3] = tested on: PSAPP mice; assay: Contextual fear conditioning test; format: in vivo, mouse
Description: as §2
On day one, animals were trained in a fear conditioning apparatus for a total of 7 minutes with a two-pairing paradigm of cue and mild foot shock (a 30-s acoustic-conditioned stimulus, 80 dB; a 2-s shock stimulus, 0.5 mA). To evaluate contextual fear learning, the animals were returned to the training context 24 hours post-training, and freezing behavior was scored for 5 minutes. Freezing behavior was monitored by MotorMonitor (Hamilton Kinder) and scored every 5 seconds.
In this study, the fear conditioning associative learning paradigm was used as a rapid cognition assay for PSAPP mice. This study allowed us to probe cognitive function with a single training day followed in 24 hours by tests for contextual and cued fear learning. Contextual fear learning is dependent upon a brain area that has been implicated as a locus for cognitive decline in AD: the hippocampus. Two pairings of CS-US for fear conditioning were followed 24 hours later by testing for contextual and cued fear learning. Previous studies have reported that PSAPP animals appear to have a selective hippocampus-dependent impairment in associative learning following two pairings of conditioned stimuli for fear conditioning.
This represents a decrease in the cognitive impairment observed in the untreated mice.

[4] = tested on: PSAPP mice; assay: Tolerability of increased dose of PSB0474; format: in vivo, mouse; conditions: 1000× increase in dose
[5] = molecular target: T1, P2Y6 receptor; conditions: cited from earlier work
[6] = tested on: PSAPP mice; assay: Two-photon in vivo imaging of amyloid plaques in barrel cortex; parameters: species or system mouse
Description: as §2
In this study, PSAPP mice were anesthetized using isoflurane and a thin-skull preparation was used to minimize the surface damage. Amyloid plaques were visualized with methoxyX04 labeling and blood plasma was labeled with Rhodamine dextran to facilitate re-localization of the same imaging area. Stack images were obtained using a two-photon system (Prairie Technologies) with excitation at 850 nm. The emission was detected by external photomultiplier tubes (525/70; DLCP 575; 607/45 nm).
Animals were anesthetized and immobilized in a stereotaxic frame. For each injection, 1 μl of 10 mM UDP or other suitable compounds in artificial cerebrospinal fluid (ACSF) as the vehicle were injected intraventricularly using the following coordinates: AP 0.2 mm, ML 1 mm, and DV 2.2 mm.
To evaluate the effect of UDP on plaque burden, two-photon microscopy was used to assess the amyloid plaques in the barrel cortex in living PSAPP mice. Amyloid plaques were stained by systemically administered methoxy-X04. One day prior to imaging, PSAPP mice were injected with methoxyX04 to label the amyloid plaques. On the imaging day, to facilitate the re-location of the same imaging area, blood plasma was labeled with Rhodamine dextran. Images were obtained from the same start- and end-point to ensure the same image volume.
The results were shown in a maximum intensity projection of a fluorescent stack containing 45 planes. Immediately after imaging, animals were injected with ACSF or UDP intracerebroventricularly (i.c.v.) and allowed to recover. On day 4, animals were subjected to a second period of imaging of the same regions studied on day 1 and the results are shown in FIG. 1(D)-(F). The similar pattern of angiopathy (shown by open arrows) indicated the same imaging area.

[7] = tested on: PSAPP mice; assay: Soluble Abeta level detected with ELISA; format: in vivo, mouse; conditions: UDP treatment
[8] = tested on: PSAPP mice; assay: Hippocampal long-term potentiation (LTP) recording; format: in vivo, mouse
Procedure: Hippocampal slices ([…] thick) were prepared from 6-month-old PSAPP mice. Baseline responses were obtained every 10 seconds and Input-output (I/O) curves, paired-pulse modification and LTP were successively measured. The stimulation intensity was set to a level that gives a value of 30% of the maximum obtained. LTP were induced by high frequency stimulation (HFS, 100 pulses at 100 Hz, four times) or by theta-burst stimulation (TBS, 10 bursts at 5 Hz, repeated 10 times in 15 s intervals).
Accumulated evidence has shown that amyloid peptides naturally secreted or isolated from Alzheimer's brains impair synaptic plasticity, especially hippocampal long-term potentiation (Walsh et al., 2002). Therefore, we further performed LTP recordings in PASPP mice and investigated whether P2Y6 receptor-mediated plaque clearance affects synaptic plasticity. […] First, it was observed that LTP at the schaffer collateral synapse within the CA1 region was depressed in PSAPP mice, as compared with littermates (FIG. 8(A)).

[9] = tested on: PSAPP mice; assay: Postmortem immunohistochemistry of plaque load in cortex and hippocampus; format: in vivo, mouse; conditions: for decrease in plaque load: acute i.c.v. UDP
[10] = molecular target: T2, P2Y2 receptor (Homo sapiens, UniProt P41231); assay: Ca2+ mobilizing effect in 1321N1 cells expressing P2Y2 (fluo-4); format: cell-based; conditions: sodium salt; 1321N1 human astrocytoma cells expressing P2Y2
T2 construct: expressed in transfected cells; host or cells: 1321N1 human astrocytoma cells
T2 sequence (P41231 whole entry): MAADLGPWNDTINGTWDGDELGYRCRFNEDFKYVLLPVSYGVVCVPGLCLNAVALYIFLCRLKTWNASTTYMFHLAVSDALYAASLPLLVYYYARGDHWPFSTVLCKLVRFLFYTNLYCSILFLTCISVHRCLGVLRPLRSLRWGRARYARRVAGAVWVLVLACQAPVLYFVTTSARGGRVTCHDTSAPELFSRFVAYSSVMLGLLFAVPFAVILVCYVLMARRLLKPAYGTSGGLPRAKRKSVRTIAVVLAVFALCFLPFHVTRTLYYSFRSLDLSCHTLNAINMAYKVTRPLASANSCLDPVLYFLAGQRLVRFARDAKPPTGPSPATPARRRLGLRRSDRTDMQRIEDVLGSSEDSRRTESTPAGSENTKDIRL
Procedure: (§3) Synthetic ligands were tested for activation of P2Y6 receptor by measuring receptor induced Ca^2+ changes with the fluorescent Ca^2+ indicator fluo-4. 1321N1 human astrocytoma cell lines either expressing P2Y2, P2Y4 or P2Y6 receptors were plated into 24-well plates. Two days after plating, fluorometric measurements were made and responses of cells to a serial dilution of ligands were determined. P2Y6 mediated Ca^2+ fluorescent change was determined by normalized accumulation of fluorescent change of 3 timepoints after ligand administration subtracted by value from ACSF control. Changes in fluorescent intensity were plotted corresponding to ligand concention in GraphPad. Dose-response curve and EC50 for each ligand was estimated using nonlinear curve fit and Sigmoidal dose-response analysis. […]
(§4) Synthetic ligands were tested for activation of P2Y6 receptor by measuring receptor induced Ca^2+ changes with the fluorescent Ca^2+ indicator fluo-4, and results are shown in FIG. 10(A)-(K). […] Two days after plating, fluorometric measurements were made and responses of cells to a serial dilution of ligands were determined. P2Y6 mediated Ca^2+ fluorescent change was determined by normalized accumulation of fluorescent change of 3 timepoints after ligand administration subtracted by value from ACSF control. […]

[11] = molecular target: T3, P2Y4 receptor (Homo sapiens, UniProt P51582); assay: Ca2+ mobilizing effect in 1321N1 cells expressing P2Y4 (fluo-4); format: cell-based; conditions: sodium salt; 1321N1 human astrocytoma cells expressing P2Y4
T3 construct: expressed in transfected cells; host or cells: 1321N1 human astrocytoma cells
T3 sequence (P51582 whole entry): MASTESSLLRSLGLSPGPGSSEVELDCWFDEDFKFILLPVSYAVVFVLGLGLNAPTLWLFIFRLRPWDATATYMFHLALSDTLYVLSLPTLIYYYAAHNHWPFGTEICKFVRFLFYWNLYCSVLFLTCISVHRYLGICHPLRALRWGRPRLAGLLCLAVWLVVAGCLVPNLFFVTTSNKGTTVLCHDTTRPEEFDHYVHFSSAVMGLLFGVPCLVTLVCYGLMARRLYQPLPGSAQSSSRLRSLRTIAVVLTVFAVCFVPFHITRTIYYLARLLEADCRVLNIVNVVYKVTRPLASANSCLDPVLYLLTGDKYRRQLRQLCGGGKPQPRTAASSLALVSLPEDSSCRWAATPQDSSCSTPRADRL
Procedure: as §3, §4

[12] = acute i.c.v. UDP, barrel cortex, day 4 vs day 1, P<0.01

S=C=Nc1cccc(NC(=S)NCCCCNC(=S)Nc2cccc(N=C=S)c2)c1 [MRS2578]
effect of antagonist on ability of sodium salt of compound 5 to elevate Ca2+ signals ([1]; P2Y6 expressing cells, MRS2578 added): attenuated

O=C(Cn1c(=O)ccn([C@@H]2O[C@H](COP(=O)(O)OP(=O)(O)O)[C@@H](O)[C@H]2O)c1=O)c1ccccc1 [PSB0474, 3-phenacyl-UDP]
β1-40 staining after stopping treatment ([2]; 6 consecutive days i.p., then stopped for 2 weeks (6+2 weeks group), level lower than saline control): rebounded | immunoreactivity of β1-40 (plaque load) ([2]; cortex): significantly decreased | effects on the efficacy endpoint at higher dose ([2]; higher dose of 1 mg/kg, one week daily treatment): smaller effects | immunoreactivity of β1-40 (plaque load) ([2]; hippocampus): significantly decreased | memory deficit compared to vehicle treatment ([3]; FIG. 9C, one week treatment with 1 ug/kg): rescued the memory deficit | total freezing percentage in context test ([3]; chronic injection of PSB0474, two different doses): increased | detrimental effects to the animal [4]: did not cause detrimental effects | EC50 ([5]; P2Y6 receptor agonist): 70 nM | selectivity for P2Y6 receptor [5]: > 500 fold

O=c1ccn([C@@H]2O[C@H](COP(=O)(O)OP(=O)(O)O)[C@@H](O)[C@H]2O)c(=O)[nH]1 [UDP, uridine diphosphate]
day 4/day 1 ratios of plaque load ([6]; FIG. 2D, UDP vs ACSF, barrel cortex): significant reductions | day 4/day 1 ratios, number of plaques ([6]; FIG. 2E, UDP vs ACSF, barrel cortex): significant reductions | reduction in plaque load [6, 12]: 17.2% | reduction in the number of plaques [6, 12]: 12.6% | reduction in cross-sectional area of individual identified plaques ([6]; acute i.c.v. UDP, second imaging session, P<0.01): 18.2% | soluble Aβ40 level ([7]; FIG. 4E): decreased | soluble Aβ42 level ([7]; FIG. 4F): decreased | freezing behavior compared to ACSF treatment ([3]; FIG. 7C, UDP-treatment 3 days prior to the test): significantly improved | freezing behavior during 5 minute-testing time ([3]; UDP treatment, during the first 4 minutes, not the last minute): increased freezing behavior | total freezing percentage ([3]; acute UDP i.c.v., contextual test, ACSF control 18%±3%): 49%±5% | field excitatory postsynaptic potential (fEPSP), last 15 min potentiation ([8]; UDP treatment, comparable to level in littermates): significant increase | LTP at schaffer collateral synapse, CA1 ([8]; acute UDP treatment vs ACSF, HFS): reversed this LTP deficit | decrease in plaque load ([9]; cortex, β1-40 antibody, p<0.05): 60% | decrease in plaque load ([9]; cortex, β1-42 antibody, P<0.01): 48% | decrease in plaque load ([9]; hippocampus, β1-40 antibody, p<0.01): 62% | decrease in plaque load ([9]; hippocampus, β1-42 antibody, P<0.05): 47%

O=c1ccn([C@@H]2O[C@H](COP(=O)(O)OP(=O)(O)O)[C@H](O)C2O)c(=O)n1Cc1noc2ccccc12 (stereo partly shown) [compound 5]
elevating Ca2+ levels in P2Y2 receptor expressing cells [10]: not effective | elevating Ca2+ levels in P2Y4 receptor expressing cells [11]: not effective | freezing behavior compared to the control treatment ([3]; FIG. 11, compound 5 prior to the test): significantly improved; also recorded: restored to a level equivalent to that observed in wildtype animals | total freezing percentage in the context test ([3]; compound 5 i.p. daily for 7 consecutive days, 1 ug/kg or 1 mg/kg): increased | Aβ plaque load (%) in the cortex vs vehicle control ([9]; FIG. 12A, β1-42 antibody, compound 5 i.p. 7 days): substantial decrease | Aβ plaque load (%) in the hippocampus vs vehicle control ([9]; FIG. 12B, β1-42 antibody, compound 5 i.p. 7 days): substantial decrease | elevating Ca2+ levels in cells expressing P2Y6 receptors ([1]; sodium salt, 1321N1 human astrocytoma cells expressing P2Y6): only effective | EC50 ([1]; sodium salt, 1321N1 human astrocytoma cells expressing P2Y6, fluo-4 Ca2+): 12 nM
